# Measured values: patent publication US9211310B2, “Use of a Chinese medicine composition in preparing medicaments for treating secondary prevention of myocardial infarction” (TASLY PHARMACEUTICAL GROUP CO., LTD, priority 2010, dated 2015)
# System: patients after acute myocardial infarction
# Assay: Angina pectoris score, total and single (frequency/attack times, duration, pain degree, dose of nitroglycerin), same clinical trial
# Type: in vivo, human
# Source text: In order to better understand the present invention, a multi-center, randomized, double-blind, double-dummy and positive drug controlled trial had been conducted. 3508 patients who were in accordance with the diagnostic standards of AMI for 28 days to 2 years and differentiated as Qi deficiency and blood stagnation syndrome by TCM were studied. 0.5 g Chinese medicine composition prepared by the method of EXAMPLE 1 (Coded as QSYQ) was administrated half an hour after meal, 3 times per day. Aspirine was used as a positive drug. The patients were treated for 1 year and observed for 6 months.
# They included the overall survival time, angina pectoris score, TCM symptom score and life quality score, where angina pectoris score, TCM symptom score and life quality score were evaluated at randomization, in 1st, 3rd, 6th, 9th, 12th month after treatment and 18th month after follow-up.
# (§1) Total angina pectoris score was described on every observation period and the change of observation in comparison with baseline. T-test or Wilcoxon rank sum test were used for inter-group comparison. Grade of total score was evaluated on every observation and Wilcoxon rank sum test was used for inter-group comparison. T-test and Pairing signed rank sum test were used for analyzing the change of total score on every observation between groups in comparison with the baseline.
# (§2) Single angina pectoris score was depicted on every observation time-point and the change of observation in comparison with baseline. Wilcoxon rank sum test was used for inter-group comparison. Pairing signed rank sum test was used for analyzing the change of total score on every observation between groups in comparison with the baseline.
# as §1, with “comparison with the baseline. T-test” for “comparison with baseline. T-test”
# as §2, with “described” for “depicted”
smiles,measurement,setting,value
"CC(=O)Oc1ccccc1C(=O)O [Control group, aspirine]","attack times score, patients (%)","6 months after treatment, score 6, FAS",(0.06%)
same,"attack times score, patients (%)","6 months after treatment, score 6, PP",(0.07%)
same,"change of attack times score, patients (%)","6 months after treatment-baseline, change 0, FAS",(57.95%)
same,"change of attack times score, patients (%)","6 months after treatment-baseline, change 0, PP",(56.80%)
same,"change of attack times score, patients (%)","6 months after treatment-baseline, change 1, FAS",(2.47%)
same,"change of attack times score, patients (%)","6 months after treatment-baseline, change 1, PP",(1.92%)
same,"change of attack times score, patients (%)","6 months after treatment-baseline, change −1, FAS",(15.20%)
same,"change of attack times score, patients (%)","6 months after treatment-baseline, change −1, PP",(16.07%)
same,"change of attack times score, patients (%)","6 months after treatment-baseline, change −2, FAS",(18.70%)
same,"change of attack times score, patients (%)","6 months after treatment-baseline, change −2, PP",(19.92%)
same,"change of attack times score, patients (%)","6 months after treatment-baseline, change −3, FAS",(0.92%)
same,"change of attack times score, patients (%)","6 months after treatment-baseline, change −3, PP",(1.10%)
same,"change of attack times score, patients (%)","6 months after treatment-baseline, change −4, FAS",(1.78%)
same,"change of attack times score, patients (%)","6 months after treatment-baseline, change −4, PP",(1.92%)
same,"change of attack times score, patients (%)","6 months after treatment-baseline, change −5, FAS",(0.00%)
same,"change of attack times score, patients (%)","6 months after treatment-baseline, change −5, PP",(0.00%)
same,"change of attack times score, patients (%)","6 months after treatment-baseline, change −6, FAS",(0.34%)
same,"change of attack times score, patients (%)","6 months after treatment-baseline, change −6, PP",(0.27%)
same,"attack times score, patients (%)","9 months after treatment, score 0, FAS",(47.31%)
same,"attack times score, patients (%)","9 months after treatment, score 0, PP",(49.06%)
same,"attack times score, patients (%)","9 months after treatment, score 1, FAS",(20.30%)
same,"attack times score, patients (%)","9 months after treatment, score 1, PP",(21.62%)
same,"attack times score, patients (%)","9 months after treatment, score 2, FAS",(30.22%)
same,"attack times score, patients (%)","9 months after treatment, score 2, PP",(28.34%)
same,"attack times score, patients (%)","9 months after treatment, score 4, FAS",(2.06%)
same,"attack times score, patients (%)","9 months after treatment, score 4, PP",(0.83%)
same,"attack times score, patients (%)","9 months after treatment, score 6, FAS",(0.11%)
same,"attack times score, patients (%)","9 months after treatment, score 6, PP",(0.14%)
same,"attack times score, patients (%)","12 months after treatment, score 0, FAS",(52.12%)
same,"attack times score, patients (%)","12 months after treatment, score 0, PP",(55.03%)
same,"attack times score, patients (%)","12 months after treatment, score 1, FAS",(22.02%)
same,"attack times score, patients (%)","12 months after treatment, score 1, PP",(23.88%)
same,"attack times score, patients (%)","12 months after treatment, score 2, FAS",(23.91%)
same,"attack times score, patients (%)","12 months after treatment, score 2, PP",(20.53%)
same,"attack times score, patients (%)","12 months after treatment, score 4, FAS",(1.89%)
same,"attack times score, patients (%)","12 months after treatment, score 4, PP",(0.56%)
same,"attack times score, patients (%)","12 months after treatment, score 6, FAS",(0.06%)
same,"change of attack times score, patients (%)","12 months after treatment-baseline, change 0, FAS",(45.61%)
same,"change of attack times score, patients (%)","12 months after treatment-baseline, change 0, PP",(41.86%)
same,"change of attack times score, patients (%)","12 months after treatment-baseline, change 1, FAS",(2.07%)
same,"change of attack times score, patients (%)","12 months after treatment-baseline, change 1, PP",(1.33%)
same,"change of attack times score, patients (%)","12 months after treatment-baseline, change 2, FAS",(1.72%)
same,"change of attack times score, patients (%)","12 months after treatment-baseline, change 2, PP",(1.19%)
same,"change of attack times score, patients (%)","12 months after treatment-baseline, change 3, FAS",(0.06%)
same,"change of attack times score, patients (%)","12 months after treatment-baseline, change 4, FAS",(0.17%)
same,"change of attack times score, patients (%)","12 months after treatment-baseline, change 4, PP",(0.14%)
same,"change of attack times score, patients (%)","12 months after treatment-baseline, change −1, FAS",(22.89%)
same,"change of attack times score, patients (%)","12 months after treatment-baseline, change −1, PP",(25.44%)
same,"change of attack times score, patients (%)","12 months after treatment-baseline, change −2, FAS",(23.01%)
same,"change of attack times score, patients (%)","12 months after treatment-baseline, change −2, PP",(25.02%)
same,"change of attack times score, patients (%)","12 months after treatment-baseline, change −3, FAS",(0.86%)
same,"change of attack times score, patients (%)","12 months after treatment-baseline, change −3, PP",(1.05%)
same,"change of attack times score, patients (%)","12 months after treatment-baseline, change −4, FAS",(3.16%)
same,"change of attack times score, patients (%)","12 months after treatment-baseline, change −4, PP",(3.56%)
same,"change of attack times score, patients (%)","12 months after treatment-baseline, change −5, FAS",(0.06%)
same,"change of attack times score, patients (%)","12 months after treatment-baseline, change −5, PP",(0.07%)
same,"change of attack times score, patients (%)","12 months after treatment-baseline, change −6, FAS",(0.40%)
same,"change of attack times score, patients (%)","12 months after treatment-baseline, change −6, PP",(0.35%)
same,"attack times score, patients (%)","Baseline, score 0, FAS",(27.54%)
same,"attack times score, patients (%)","Baseline, score 0, PP",(26.99%)
same,"attack times score, patients (%)","Baseline, score 1, FAS",(9.06%)
